The structures appear in SMILES notation. A value given as a limit tells only on which side of the number the result lay.

One assay deals with T1, human capsaicin receptor (Homo sapiens, UniProt Q8NER1).
T1 construct: expressed in transfected cells
T1 sequence (Q8NER1 whole entry): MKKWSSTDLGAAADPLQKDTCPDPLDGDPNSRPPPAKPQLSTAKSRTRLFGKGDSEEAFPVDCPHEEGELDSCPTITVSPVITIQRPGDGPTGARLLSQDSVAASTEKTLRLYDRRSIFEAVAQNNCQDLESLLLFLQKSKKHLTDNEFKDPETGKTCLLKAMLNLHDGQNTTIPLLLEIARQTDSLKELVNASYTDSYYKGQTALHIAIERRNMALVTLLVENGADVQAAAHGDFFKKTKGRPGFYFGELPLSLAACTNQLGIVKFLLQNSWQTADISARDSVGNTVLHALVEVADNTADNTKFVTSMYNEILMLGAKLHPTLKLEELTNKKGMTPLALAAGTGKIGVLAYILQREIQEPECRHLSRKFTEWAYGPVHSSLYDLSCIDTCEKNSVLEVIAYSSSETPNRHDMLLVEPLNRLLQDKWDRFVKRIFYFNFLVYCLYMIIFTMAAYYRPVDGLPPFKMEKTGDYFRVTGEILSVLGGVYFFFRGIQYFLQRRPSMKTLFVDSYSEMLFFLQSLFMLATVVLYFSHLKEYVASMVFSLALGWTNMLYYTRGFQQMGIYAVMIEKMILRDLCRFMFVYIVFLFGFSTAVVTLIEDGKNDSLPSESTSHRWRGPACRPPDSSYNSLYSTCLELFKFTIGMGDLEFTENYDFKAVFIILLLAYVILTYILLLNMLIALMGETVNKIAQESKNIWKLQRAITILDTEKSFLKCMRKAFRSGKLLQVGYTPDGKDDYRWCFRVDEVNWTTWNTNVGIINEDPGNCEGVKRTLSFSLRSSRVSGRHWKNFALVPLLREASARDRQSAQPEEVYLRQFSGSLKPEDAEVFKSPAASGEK
Nature of the assay: Calcium mobilization assay, determination of antagonist activity (Example 6). The conditions noted are these: Table I; IC50 determined as described in Example 6; read-out: IC50. The assay is classed as cell-based. How it is done:
A cDNA encoding full length human capsaicin receptor (SEQ ID NO:1, 2 or 3 of U.S. Pat. No. 6,482,611) is subcloned in the plasmid pBK-CMV (Stratagene, La Jolla, Calif.) for recombinant expression in mammalian cells.
Human embryonic kidney (HEK293) cells are transfected with the pBK-CMV expression construct encoding the full length human capsaicin receptor using standard methods. The transfected cells are selected for two weeks in media containing G418 (400 μg/ml) to obtain a pool of stably transfected cells. Independent clones are isolated from this pool by limiting dilution to obtain clonal stable cell lines for use in subsequent experiments.
This Example illustrates representative calcium mobilization assays for use in evaluating test compounds for agonist and antagonist activity.
Cells transfected with expression plasmids (as described in Example 4) and thereby expressing human capsaicin receptor are seeded and grown to 70-90% confluency in FALCON black-walled, clear-bottomed 96-well plates (#3904, BECTON-DICKINSON, Franklin Lakes, N.J.). The culture medium is emptied from the 96 well plates and FLUO-3 AM calcium sensitive dye (Molecular Probes, Eugene, Oreg.) is added to each well (dye solution: 1 mg FLUO-3 AM, 440 μL DMSO and 440 μl 20% pluronic acid in DMSO, diluted 1:250 in Krebs-Ringer HEPES (KRH) buffer (25 mM HEPES, 5 mM KCl, 0.96 mM NaH2PO4, 1 mM MgSO4, 2 mM CaCl2, 5 mM glucose, 1 mM probenecid, pH 7.4), 50 μl diluted solution per well). Plates are covered with aluminum foil and incubated at 37° C. for 1-2 hours in an environment containing 5% CO2. After the incubation, the dye is emptied from the plates, and the cells are washed once with KRH buffer, and resuspended in KRH buffer.
To measure the ability of a test compound to agonize or antagonize a calcium mobilization response in cells expressing capsaicin receptors to capsaicin or other vanilloid agonist, the EC50 of the agonist capsaicin is first determined. An additional 20 μl of KRH buffer and 1 μl DMSO is added to each well of cells, prepared as described above. 100 μl capsaicin in KRH buffer is automatically transferred by the FLIPR instrument to each well. Capsaicin-induced calcium mobilization is monitored using either FLUOROSKAN ASCENT (Labsystems; Franklin, Mass.) or FLIPR (fluorometric imaging plate reader system; Molecular Devices, Sunnyvale, Calif.) instruments. Data obtained between 30 and 60 seconds after agonist application are used to generate an 8-point concentration response curve, with final capsaicin concentrations of 1 nM to 3 μM. KALEIDAGRAPH software (Synergy Software, Reading, Pa.) is used to fit the data to the equation: y=a*(1/(1+(b/x)^c)) to determine the 50% excitatory concentration (EC50) for the response. In this equation, y is the maximum fluorescence signal, x is the concentration of the agonist or antagonist (in this case, capsaicin), a is the Emax, b corresponds to the EC50 value and c is the Hill coefficient. Determination of Agonist Activity
Test compounds are dissolved in DMSO, diluted in 20 μl KRH buffer so that the final concentration of test compounds in the assay well is between 1 μM and 5 μM, and added to cells prepared as described above. The 96 well plates containing prepared cells and test compounds are incubated in the dark, at room temperature for 0.5 to 6 hours. It is important that the incubation not continue beyond 6 hours. Just prior to determining the fluorescence response, 100 μl capsaicin in KRH buffer at twice the EC50 concentration determined as described above is automatically added by the FLIPR instrument to each well of the 96 well plate for a final sample volume of 200 μl and a final capsaicin concentration equal to the EC50. The final concentration of test compounds in the assay wells is between 1 μM and 5 μM. […]
In general terms: Calcium flux is commonly read through the fluorescence of an indicator in the cells.
In the case of `CN(C)CC1CCCCN1c1cc(C(F)(F)F)c(-c2cnc3c(Nc4ccc(C(F)(F)F)cn4)ccnc3n2)nn1` (stereo not drawn) [compound 164, 3-[6-{2-[(dimethylamino)-methyl]piperidin-1-yl}-4-(trifluoromethyl)pyridazin-3-yl)-N-[5-(trifluoromethyl)-pyridin-2-yl]pyrido[2,3-b]pyrazin-8-amine], the IC50 was less than 1000 nM. Same read-out and setting: in the case of `CCCN(CC1CC1)c1cc(C(F)(F)F)c(-c2cnc3c(Nc4ccc(C(F)(F)F)cn4)ccnc3n2)nn1` [compound 153, 3-{6-[(cyclopropylmethyl)-(propyl)amino]-4-(trifluoro-methyl)pyridazin-3-yl}-N-[5-(trifluoromethyl)pyridin-2-yl]pyrido[2,3-b]pyrazin-8-amine] it was less than 1000 nM.

As to `CN(C)CCCN(C)c1cc(C(F)(F)F)c(-c2cnc3c(Nc4ccc(C(F)(F)F)cn4)ccnc3n2)nn1` [compound 88, N,N,N′-trimethyl-N′-[5-(trifluoromethyl)-6-(8-{[5-(trifluoromethyl)pyridin-2-yl]amino}pyrido[2,3-b]pyrazin-3-yl)pyridazin-3-yl]propane-1,3-diamine], the IC50 was less than 1000 nM. Same read-out and setting: in the case of `C[C@H](O)CNc1cc(C(F)(F)F)c(-c2cnc3c(Nc4ccc(C(F)(F)F)cn4)ccnc3n2)nn1` [compound 126, (S)-1-{[5-(trifluoromethyl)-6-(8-{[5-(trifluoromethyl)-pyridin-2-yl]amino}-pyrido[2,3-b]pyrazin-3-yl)pyridazin-3-yl]amino}propan-2-ol] it was less than 1000 nM; in that of `FC(F)(F)c1ccc(Nc2ccnc3nc(-c4ncc(Br)cc4C(F)(F)F)cnc23)nc1` [compound 31, [3-(5-Bromo-3-trifluoromethyl-pyridin-2-yl)-pyrido[2,3-b]pyrazin-8-yl]-(5-trifluoromethyl-pyridin-2-yl)-amine], less than 1000 nM; in that of `C=CCN(CC=C)c1cc(C(F)(F)F)c(-c2cnc3c(Nc4ccc(C(F)(F)F)cn4)ccnc3n2)nn1` [compound 150, 3-[6-(diallylamino)-4-(trifluoromethyl)pyridazin-3-yl]-N-[5-(trifluoromethyl)-pyridin-2-yl]pyrido[2,3-b]pyrazin-8-amine], less than 1000 nM. On the same count and under the same terms, the same measure for `O=C(O)c1ccc(C(F)(F)F)c(-c2ccc3c(Nc4ccc(C(F)(F)F)cn4)ccnc3n2)n1` [compound 26, 5-Trifluoromethyl-6-[5-(5-trifluoromethyl-pyridin-2-ylamino)-[1,8]naphthyridin-2-yl]-pyridine-2-carboxylic acid]: less than 1000 nM. With `O=C(O)c1cnc(-c2ccc3c(Nc4ccc(C(F)(F)F)cn4)ccnc3n2)c(C(F)(F)F)c1` [compound 22, 5-Trifluoromethyl-6-[5-(5-trifluoromethyl-pyridin-2-ylamino)-[1,8]naphthyridin-2-yl]-nicotinic acid], the IC50 was less than 1000 nM. Same read-out and setting: in the case of `CCN(CCCO)c1cc(C(F)(F)F)c(-c2cnc3c(Nc4ccc(C(F)(F)F)cn4)ccnc3n2)nn1` [compound 177, 3-{ethyl[5-(trifluoromethyl)-6-(8-{[5-(trifluoromethyl)-pyridin-2-yl]amino}-pyrido[2,3-b]pyrazin-3-yl)-pyridazin-3-yl]amino}propan-1-ol] it was less than 1000 nM.

Staying with this assay, now noted: cells expressing human capsaicin receptor; capsaicin at EC50; read-out: IC50 determined as described in Example 6.
On to `NC(=O)c1cnc(-c2cnc3c(Nc4cnc(C(F)(F)F)cn4)ccnc3n2)c(C(F)(F)F)c1` [Compound 15, 5-(Trifluoromethyl)-6-(8-(5-(trifluoromethyl)pyrazin-2-ylamino)pyrido[2,3-b]pyrazin-3-yl)nicotinamide], for which the IC50 was less than 1000 nM. Same read-out and setting: the same measure for `NC(=O)c1cnc(-c2ccc3c(Nc4ccc(C(F)(F)F)cn4)ccnc3n2)c(C(F)(F)F)c1` [Compound 8, 5-Trifluoromethyl-6-[5-(5-trifluoromethyl-pyridin-2-ylamino)-[1,8]naphthyridin-2-yl]-nicotinamide]: less than 1000 nM; for `FC(F)(F)c1ccc(Nc2ccnc3nc(-c4nnc(NCc5cccnc5)cc4C(F)(F)F)cnc23)nc1` [Compound 20]: less than 1000 nM.

The IC50 is the concentration that inhibits the measured activity by half.

These data come from patent publication US7935702B2, “Substituted biaryl quinolin-4-ylamine analogues” (Neurogen Corporation, priority 2004, dated 2011).
